Each molecule was assayed against human Edg-2 receptor (Homo sapiens, UniProt Q92633) (assay: Determination of Edg-2 receptor inhibition by FLIPR measurements (LPA-mediated calcium liberation)). Conditions: CHO cells overexpressing human Edg-2 receptor, LPA 100 nM, fluo-4 calcium fluorescence; read-out: Inhibitory concentrations IC50 for inhibition of the Edg-2 receptor.
Format: cell-based
Method in brief: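 IC50 was derived from % inhibition of the baseline-corrected peak fluo-4 signal relative to DMSO, measured in triplicate. Compound was added ~5 min before 100 nM LPA (18:1) to human Edg-2–expressing CHO cells in pH 7.5 HBSS buffer with probenecid and HEPES, and fluorescence was monitored ~3 min.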

Chain of human Edg-2 receptor (Q92633 whole entry): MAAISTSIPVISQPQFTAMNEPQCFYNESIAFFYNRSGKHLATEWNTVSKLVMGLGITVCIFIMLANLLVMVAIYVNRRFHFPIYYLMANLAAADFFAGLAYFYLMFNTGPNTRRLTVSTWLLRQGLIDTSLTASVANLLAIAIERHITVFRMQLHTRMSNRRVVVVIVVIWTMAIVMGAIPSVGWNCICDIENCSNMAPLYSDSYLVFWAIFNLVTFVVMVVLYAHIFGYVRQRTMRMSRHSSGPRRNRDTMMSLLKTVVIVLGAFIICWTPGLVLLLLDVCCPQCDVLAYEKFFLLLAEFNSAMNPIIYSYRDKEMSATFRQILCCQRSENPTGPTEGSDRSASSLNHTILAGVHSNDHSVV

Row | IC50 [nM] | SMILES
1 | < 100 | Cc1cccc(CCOc2cc(C(=O)N[C@]3(C(=O)O)CC[C@@H](C)CC3)ccc2OCCO)c1 [Example 122, trans-1-[4-(2-Hydroxy-ethoxy)-3-(2-m-tolyl-ethoxy)-benzoylamino]-4-methyl-cyclohexanecarboxylic acid]
2 | < 100 | Cc1cccc(CCOc2cc(C(=O)N[C@]3(C(=O)O)CC[C@H](C)CC3)ccc2OCCO)c1 [Example 123, cis-1-[4-(2-Hydroxy-ethoxy)-3-(2-m-tolyl-ethoxy)-benzoylamino]-4-methyl-cyclohexanecarboxylic acid]
3 | 100 to 1000 | Cc1cccc(CCOc2cc(C(=O)NC3(C(=O)O)CCCCCC3)ccc2OCCO)c1 [Example 124, 1-[4-(2-Hydroxy-ethoxy)-3-(2-m-tolyl-ethoxy)-benzoylamino]-cycloheptane-carboxylic acid]
4 | < 100 | CC[C@H]1CC[C@](NC(=O)c2ccc(C(F)(F)F)c(-c3ccc(OC)c(Cl)c3)c2)(C(=O)O)CC1 [Example 125, cis-1-[(3′-Chloro-4′-methoxy-6-trifluoromethyl-biphenyl-3-carbonyl)-amino]-4-ethyl-cyclohexanecarboxylic acid]
5 | < 100 | CC[C@H]1CC[C@](NC(=O)c2ccc(OC)c(OCCc3cccc(C4COC4)c3)c2)(C(=O)O)CC1 [Example 127, cis-4-Ethyl-1-{4-methoxy-3-[2-(3-oxetan-3-yl-phenyl)-ethoxy]-benzoylamino}-cyclohexanecarboxylic acid]
6 | 100 to 1000 | COc1ccc(C(=O)N[C@]2(C(=O)O)CC[C@@H](C)CC2)cc1OCCc1cccc(C2COC2)c1 [Example 128, trans-1-{4-Methoxy-3-[2-(3-oxetan-3-yl-phenyl)-ethoxy]-benzoylamino}-4-methyl-cyclohexanecarboxylic acid]
7 | 100 to 1000 | COc1ccc(C(=O)NC2(C(=O)O)CCCCCC2)cc1OCCc1cccc(C2COC2)c1 [Example 129, 1-{4-Methoxy-3-[2-(3-oxetan-3-yl-phenyl)-ethoxy]-benzoylamino}-cycloheptanecarboxylic acid]
8 | < 100 | CC[C@H]1CC[C@](NC(=O)c2ccc(C3COC3)c(OCCc3cccc(C)c3)c2)(C(=O)O)CC1 [Example 130, cis-4-Ethyl-1-[4-oxetan-3-yl-3-(2-m-tolyl-ethoxy)-benzoylamino]-cyclohexanecarboxylic acid]
9 | < 100 | Cc1cccc(CCOc2cc(C(=O)N[C@]3(C(=O)O)CC[C@H](C(F)(F)F)CC3)ccc2C2COC2)c1 [Example 131, cis-1-[4-Oxetan-3-yl-3-(2-m-tolyl-ethoxy)-benzoylamino]-4-trifluoromethyl-cyclohexanecarboxylic acid]
10 | < 100 | Cc1cccc(CCOc2cc(C(=O)NC3(C(=O)O)CCCCCC3)cc3c2OCO3)c1 [Example 132, 1-{[7-(2-m-Tolyl-ethoxy)-benzo[1,3]dioxole-5-carbonyl]-amino}-cycloheptanecarboxylic acid]
11 | < 100 | Cc1cccc(CCOc2cc(C(=O)N[C@]3(C(=O)O)CC[C@H](C(F)(F)F)CC3)cc3c2OCO3)c1 [Example 133, cis-1-{[7-(2-m-Tolyl-ethoxy)-benzo[1,3]dioxole-5-carbonyl]-amino}-4-trifluoromethyl-cyclohexanecarboxylic acid]
12 | < 100 | CC[C@H]1CC[C@](NC(=O)c2cc(OCCc3cccc(C)c3)c3c(c2)OCO3)(C(=O)O)CC1 [Example 134, cis-4-Ethyl-1-{[7-(2-m-tolyl-ethoxy)-benzo[1,3]dioxole-5-carbonyl]-amino}-cyclohexanecarboxylic acid]
13 | < 100 | CC[C@H]1CC[C@@](NC(=O)c2ccc(OC)c(OCCc3ccccc3)c2)(C(=O)O)CC1 [Example 205]
14 | < 100 | CC[C@H]1CC[C@](NC(=O)c2ccc(OC)c(OCCc3ccccc3)c2)(C(=O)O)CC1 [Example 206]
15 | < 100 | CC[C@H]1CC[C@@](NC(=O)c2ccc(OC)c(OCCc3cccc(Cl)c3)c2)(C(=O)O)CC1 [Example 207]
16 | < 100 | CC[C@H]1CC[C@](NC(=O)c2ccc(OC)c(OCCc3cccc(Cl)c3)c2)(C(=O)O)CC1 [Example 208]
17 | < 100 | CC[C@H]1CC[C@](NC(=O)c2cnc(OC)c(-c3cccc(OC(F)(F)F)c3)c2)(C(=O)O)CC1 [Example 299, cis-4-ethyl-1-{[6-methoxy-5-(3-trifluoromethoxy-phenyl)-pyridine-3-carbonyl]-amino}-cyclohexanecarboxylic acid]
18 | < 100 | CC[C@H]1CC[C@](NC(=O)c2cnc(OC)c(-c3cccc(Cl)c3Cl)c2)(C(=O)O)CC1 [Example 300]
19 | < 100 | CC[C@H]1CC[C@](NC(=O)c2cnc(OC)c(-c3cc(F)c(F)c(F)c3)c2)(C(=O)O)CC1 [Example 301]
20 | < 100 | CC[C@H]1CC[C@](NC(=O)c2cnc(OC)c(-c3cc(Cl)cc(C(F)(F)F)c3)c2)(C(=O)O)CC1 [Example 302]
21 | < 100 | CC[C@H]1CC[C@](NC(=O)c2cnc(OC)c(-c3cccc(C(F)(F)F)c3)c2)(C(=O)O)CC1 [Example 303]
22 | < 100 | CC[C@H]1CC[C@](NC(=O)c2cnc(OC)c(-c3cccc(C(F)(F)F)c3F)c2)(C(=O)O)CC1 [Example 304]
23 | < 100 | CC[C@H]1CC[C@@](NC(=O)c2cnc(OC)c(-c3cccc(OC(F)(F)F)c3)c2)(C(=O)O)CC1 [Example 306]
24 | < 100 | COc1ncc(C(=O)N[C@]2(C(=O)O)CC[C@H](C)CC2)cc1-c1cccc(OC(F)(F)F)c1 [Example 307]
25 | < 100 | COc1ncc(C(=O)N[C@]2(C(=O)O)CC[C@@H](C)CC2)cc1-c1cccc(OC(F)(F)F)c1 [Example 308]
26 | < 100 | CC[C@H]1CC[C@@](NC(=O)c2cnc(OC)c(-c3cccc(Cl)c3Cl)c2)(C(=O)O)CC1 [Example 309]

Row | IC50 [nM] | SMILES
27 | < 100 | COc1ncc(C(=O)N[C@]2(C(=O)O)CC[C@H](C)CC2)cc1-c1cccc(Cl)c1Cl [Example 310]
28 | < 100 | COc1ncc(C(=O)N[C@]2(C(=O)O)CC[C@@H](C)CC2)cc1-c1cccc(Cl)c1Cl [Example 311]
29 | 100 to 1000 | CC[C@H]1CC[C@@](NC(=O)c2cnc(OC)c(-c3cc(F)c(F)c(F)c3)c2)(C(=O)O)CC1 [Example 312]
30 | < 100 | COc1ncc(C(=O)N[C@]2(C(=O)O)CC[C@H](C)CC2)cc1-c1cc(F)c(F)c(F)c1 [Example 313]
31 | < 100 | COc1ncc(C(=O)N[C@]2(C(=O)O)CC[C@@H](C)CC2)cc1-c1cc(F)c(F)c(F)c1 [Example 314]
32 | < 100 | COc1ncc(C(=O)N[C@]2(C(=O)O)CC[C@@H](C)CC2)cc1-c1cc(Cl)cc(C(F)(F)F)c1 [Example 315]
33 | < 100 | CC[C@H]1CC[C@@](NC(=O)c2cnc(OC)c(-c3cccc(C(F)(F)F)c3)c2)(C(=O)O)CC1 [Example 316]
34 | < 100 | COc1ncc(C(=O)N[C@]2(C(=O)O)CC[C@H](C)CC2)cc1-c1cccc(C(F)(F)F)c1 [Example 317]
35 | < 100 | COc1ncc(C(=O)N[C@]2(C(=O)O)CC[C@@H](C)CC2)cc1-c1cccc(C(F)(F)F)c1 [Example 318]
36 | < 100 | COc1ccc(-c2cc(C(=O)N[C@]3(C(=O)O)CC[C@H](C)CC3)cnc2OC)cc1Cl [Example 319]
37 | < 100 | COc1ccc(-c2cc(C(=O)N[C@]3(C(=O)O)CC[C@@H](C)CC3)cnc2OC)cc1Cl [Example 320]
38 | < 100 | CC[C@H]1CC[C@](NC(=O)c2ccc(OC)c(-c3cccc(OC(F)(F)F)c3)c2)(C(=O)O)CC1 [Example 327]
39 | 100 to 1000 | CC[C@H]1CC[C@@](NC(=O)c2ccc(OC)c(-c3cccc(OC(F)(F)F)c3)c2)(C(=O)O)CC1 [Example 328]
40 | < 100 | COc1ccc(C(=O)N[C@]2(C(=O)O)CC[C@H](C)CC2)cc1-c1cccc(OC(F)(F)F)c1 [Example 329]
41 | 1000 to 30000 | COc1ccc(C(=O)N[C@]2(C(=O)O)CC[C@@H](C)CC2)cc1-c1cccc(OC(F)(F)F)c1 [Example 330]
42 | < 100 | CC[C@H]1CC[C@](NC(=O)c2ccc(OC)c(-c3cccc(C(F)(F)F)c3)c2)(C(=O)O)CC1 [Example 331]
43 | < 100 | CC[C@H]1CC[C@@](NC(=O)c2ccc(OC)c(-c3cccc(C(F)(F)F)c3)c2)(C(=O)O)CC1 [Example 332]
44 | < 100 | COc1ccc(C(=O)N[C@]2(C(=O)O)CC[C@H](C)CC2)cc1-c1cccc(C(F)(F)F)c1 [Example 333]
45 | 100 to 1000 | COc1ccc(C(=O)N[C@]2(C(=O)O)CC[C@@H](C)CC2)cc1-c1cccc(C(F)(F)F)c1 [Example 334]
46 | < 100 | CC[C@H]1CC[C@](NC(=O)c2ccc(OC)c(-c3ccc(OC)c(Cl)c3)c2)(C(=O)O)CC1 [Example 351]
47 | < 100 | CC[C@H]1CC[C@@](NC(=O)c2ccc(OC)c(-c3ccc(OC)c(Cl)c3)c2)(C(=O)O)CC1 [Example 352]
48 | < 100 | CC[C@H]1CC[C@@](NC(=O)c2cnc(OC)c(OCCc3ccccc3)c2)(C(=O)O)CC1 [Example 355, trans-4-Ethyl-1-[(6-methoxy-5-phenethyloxy-pyridine-3-carbonyl)-amino]-cyclohexanecarboxylic acid]
49 | < 100 | COc1ncc(C(=O)N[C@]2(C(=O)O)CC[C@H](C)CC2)cc1OCCc1cccc(Cl)c1 [Example 356, cis-1-({5-[2-(3-Chloro-phenyl)-ethoxy]-6-methoxy-pyridine-3-carbonyl}-amino)-4-methyl-cyclohexanecarboxylic acid]
50 | < 100 | CC[C@H]1CC[C@](NC(=O)c2cnc(OC)c(OCCc3cccc(Cl)c3)c2)(C(=O)O)CC1 [Example 357, cis-1-({5-[2-(3-Chloro-phenyl)-ethoxy]-6-methoxy-pyridine-3-carbonyl}-amino)-4-ethyl-cyclohexanecarboxylic acid]
51 | < 100 | CC[C@H]1CC[C@](NC(=O)c2cnc(OC)c(OCCc3ccccc3)c2)(C(=O)O)CC1 [Example 358, cis-4-Ethyl-1-[(6-methoxy-5-phenethyloxy-pyridine-3-carbonyl)-amino]-cyclohexanecarboxylic acid]
